This assay has as its target T1, hCRTH2 (Homo sapiens, UniProt Q9Y5Y4).
T1 construct: expressed in transfected cells; host or cells: HEK (human embryonic kidney) cells expressing hCRTH2; membrane preparation
T1 sequence (Q9Y5Y4 1-395): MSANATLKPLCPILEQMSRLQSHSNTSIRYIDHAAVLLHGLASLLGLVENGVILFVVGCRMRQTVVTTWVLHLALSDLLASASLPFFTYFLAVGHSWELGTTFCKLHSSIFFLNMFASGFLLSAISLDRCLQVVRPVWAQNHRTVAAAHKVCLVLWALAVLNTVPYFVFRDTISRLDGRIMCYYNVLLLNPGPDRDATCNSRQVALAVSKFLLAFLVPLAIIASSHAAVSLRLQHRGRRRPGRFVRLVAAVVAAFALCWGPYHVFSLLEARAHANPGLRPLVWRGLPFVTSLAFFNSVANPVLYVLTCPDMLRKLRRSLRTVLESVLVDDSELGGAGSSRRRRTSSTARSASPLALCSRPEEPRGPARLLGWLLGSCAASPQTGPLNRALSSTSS
Description: Radioligand binding assay ([3H]PGD2 competition, HEK-hCRTH2 membranes). The procedure, abridged:
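HEK-hCRTH2 membranes, 8-20 μg; [3H]PGD2 3.0 nM; 50 mM Tris-HCl pH 7.4/1 mM EDTA/2 mM MnCl2; DMSO 1%; 60 min RT; NSB 10 μM PGD2; filtration, scintillation counting.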

Where [1] appears, read: [3H]PGD2 binding, rated A-E (Table A).
[2] abbreviates: [3H]PGD2 binding, values in text.

The values that follow come from patent US9469615B2, “Quinoxalines and AZA-quinoxalines as CRTH2 receptor modulators” (Merck Sharp & Dohme Corp., priority 2010, dated 2016).

`O=C(O)CCCCc1nc2cc(C(=O)N[C@H](c3ccccc3)C(F)(F)F)ccc2nc1-c1ccc(F)cc1` [compound 137, 3-(4-fluorophenyl)-7-[[[2,2,2-2-trifluoro-1(R)-phenylethyl)amino]carbonyl]-2-quinoxalinepentanoic acid] registered an inhibition constant Ki under setting [1] of 20.1 to 200 nM.

Under setting [1], `O=C(O)CCCCc1nc2cc(C(=O)NC(c3ccc(F)cc3)C(F)(F)F)ccc2nc1-c1ccccc1` (stereo not drawn) [15Q, 5-(3-phenyl-7-{[2,2,2-trifluoro-1-(4-fluoro-phenyl)ethyl]carbamoyl}-quinoxalin-2-yl)pentanoic acid] registered a Ki of 0.1 to 2 nM.

Turning to `CC1(C)CCC(NC(=O)c2ccc3nc(-c4ccccc4)c(CCCCC(=O)O)nc3c2)c2ccccc21` (stereo not drawn) [compound 296, 5-(7-((4,4-dimethyl-1,2,3,4-tetrahydronaphthalen-1-yl)carbamoyl)-3-phenylquinoxalin-2-yl)pentanoic acid], the inhibitory constant (Ki) ([3H]PGD2 competition, Table B) was in the range of 2.1 to 20 nM.

`CC(CCCc1nc2cc(C(=O)N3CC(c4ccccc4)C3)ccc2nc1-c1ccc(Cl)cc1)C(=O)O` (stereo not drawn) [compound 165, 3-(4-chlorophenyl)-alpha-methyl-7-[(3-phenyl-1-azetidinyl)carbonyl]-2-quinoxalinepentanoic acid]: the Ki under setting [1] is 2.1 to 20 nM.

As for `O=C(O)CCCCc1nc2cc(C(=O)NC3C(=O)Nc4ccccc43)ccc2nc1-c1ccc(Cl)cc1` (stereo not drawn) [compound 566, 5-(3-(4-chlorophenyl)-7-((2-oxoindolin-3-yl)carbamoyl)quinoxalin-2-yl)pentanoic acid], the Ki ([3H]PGD2 competition, Table B) is 2.1 to 20 nM.

Compound `C[C@H](c1ccc(F)cc1)N(C)C(=O)c1ccc2nc(-c3ccc(F)cc3)c(CCCCC(=O)O)nc2c1` [compound 240, 3-(4-fluorophenyl)-7-[[[1(R)-(4-fluorophenyl)ethyl]methylamino]carbonyl]-2-quinoxalinepentanoic acid] gave a Ki under setting [1] of 2.1 to 20 nM.

Compound `O=C(O)CCCCc1nc2cc(C(=O)N3CC=C(c4ccccc4)CC3)ccc2nc1-c1ccccc1` [compound 116, 7-(4-phenyl-1,2,3,6-tetrahydropyridine-1-carbonyl)-3-phenyl-2-quinoxalinepentanoic acid] gave an inhibition constant Ki under setting [1] of 2.1 to 20 nM.

In turn, `O=C(O)CCCCc1nc2cc(C(=O)NCc3cc(Cl)cc(Cl)c3)ccc2nc1-c1ccc(Cl)cc1` [16Q, 3-(4-chlorophenyl)-7-[[[(3,5-dichlorophenyl)methyl]amino]carbonyl]-2-quinoxalinepentanoic acid] registered an inhibitory constant (Ki) under setting [1] of 0.1 to 2 nM.

In turn, `C[C@H](NC(=O)c1ccc2nc(-c3ccc(Cl)cc3)c(CCCCC(=O)O)nc2c1)c1ccc(C#N)cc1` [compound 257] showed a Ki ([3H]PGD2 competition, Table B) of 2.1 to 20 nM.

For `O=C(O)CCCCc1nc2cc(C(=O)N3CC(Oc4ccccn4)C3)ccc2nc1-c1ccc(Cl)cc1` [compound 329, 5-(3-(4-chlorophenyl)-7-(3-(pyridin-2-yloxy)azetidine-1-carbonyl)quinoxalin-2-yl)pentanoic acid], where the note is “[3H]PGD2 competition, Table B”, the Ki is 2.1 to 20 nM.

Take `O=C(O)C1CCC(Cc2nc3cc(C(=O)N4CC(c5cccc(F)c5)C4)ccc3nc2-c2ccc(Cl)cc2)C1` (stereo not drawn) [compound 397, 3-((3-(4-chlorophenyl)-7-(3-(3-fluorophenyl)azetidine-1-carbonyl)quinoxalin-2-yl)methyl)cyclopentane-carboxylic acid]: the Ki ([3H]PGD2 competition, Table B) was 2.1 to 20 nM.

For `COc1ccc(-c2nc3ccc(C(=O)N4CCC(c5ccccc5)CC4)cc3nc2CCCCC(=O)O)cc1` [26o, 3-(4-methoxyphenyl)-7-[(4-phenyl-1-piperidinyl)carbonyl]-2-quinoxalinepentanoic acid], the Ki was 0.1 to 2 nM under setting [1] and 1.4 nM under setting [2].

As to `CN(Cc1ccccc1)C(=O)c1ccc2nc(-c3ccc(F)cc3)c(CCc3cccc(CC(=O)O)c3)nc2c1` [compound 202, 3-[2-[3-(4-fluorophenyl)-7-[[methyl(phenylmethyl)amino]carbonyl]-2-quinoxalinyl]ethyl] benzeneacetic acid], under setting [1], the Ki was 0.1 to 2 nM.

For the compound `O=C(O)CCCCc1nc2cc(C(=O)N[C@@H]3CCCc4cccnc43)ccc2nc1-c1ccccc1` [compound 370, (R)-8-(3-(4-carboxybutyl)-2-phenylquinoxaline-6-carboxamido)-5,6,7,8-tetrahydroquinolin-1-ium 2,2,2-trifluoroacetic acid], the inhibition constant (Ki) ([3H]PGD2 competition, Table B) was 201 to 700 nM.

Compound `CC[C@@H](NC(=O)c1ccc2nc(-c3ccc(Cl)cc3)c(CCCCC(=O)O)nc2c1)c1ccc(F)cc1` [compound 376, (R)-5-(3-(4-chlorophenyl)-7-((1-(4-fluorophenyl)propyl)carbamoyl)quinoxalin-2-yl)pentanoic acid] registered a Ki ([3H]PGD2 competition, Table B) of 2.1 to 20 nM.

In the case of `C[C@@H](NC(=O)c1ccc2nc(CCCCC(=O)O)c(-c3ccccc3)nc2c1)c1ccc(F)cc1` [8G], under setting [1], the Ki was in the range of 20.1 to 200 nM.

Regarding `O=C(O)CCCCc1nc2cc(C(=O)N3CCC(c4ccccc4)C3)ccc2nc1-c1ccc(C(F)(F)F)cc1` (stereo in doubt) [compound 153, 7-[(3(S)-phenyl-1-pyrrolidinyl]carbonyl]-3-[4-(trifluoromethyl)phenyl]-2-quinoxalinepentanoic acid], the Ki under setting [1] lay within 0.1 to 2 nM.

Regarding `C[C@H]1CN(c2ccc(Cl)cc2)CCN1C(=O)c1ccc2nc(-c3ccccc3)c(CCCCC(=O)O)nc2c1` [compound 551, (S)-5-(7-(4-(4-chlorophenyl)-2-methylpiperazine-1-carbonyl)-3-phenyl-quinoxalin-2-yl)pentanoic acid], the inhibitory constant (Ki) ([3H]PGD2 competition, Table B) fell in the range of 2.1 to 20 nM.

In turn, `O=C(O)CCCCc1nc2cc(C(=O)N3CCC4(CC3)CNC(=O)c3ccccc34)ccc2nc1-c1ccccc1` [compound 298, 5-(7-(i-oxo-2,3-dihydro-1H-spiro[isoquinoline-4,4′-piperidin]-1′-ylcarbonyl)-3-phenylquinoxalin-2-yl)pentanoic acid] showed an inhibitory constant (Ki) ([3H]PGD2 competition, Table B) of 2.1 to 20 nM.

With `O=C(O)CCCCc1nc2cc(C(=O)NCc3ccccc3)ccc2nc1-c1ccccc1` [15Z, 5-[7-(benzylcarbamoyl)-3-phenylquinoxalin-2-yl]pentanoic acid], the inhibition constant (Ki) under setting [1] was 0.1 to 2 nM.

Take `O=C(O)CCCCc1nc2cc(C(=O)N[C@@H]3CCCc4cc(F)ccc43)ccc2nc1-c1ccccc1` [compound 254, 7-[[(6-fluoro-1,2,3,4-tetrahydro-1(R)-naphthalenyl)amino]carbonyl]-3-phenyl-2-quinoxalinepentanoic acid]: the Ki under setting [1] fell in the range of 0.1 to 2 nM.

Consider `O=C(O)Cc1cccc(CCCc2nc3cc(C(=O)N4CCN(c5ccccc5)CC4)ccc3nc2-c2ccc(F)cc2)c1` [compound 272, 2-(3-(3-(3-(4-fluorophenyl)-7-(4-phenylpiperazine-1-carbonyl)quinoxalin-2-yl)propyl)phenyl)acetic acid], for which the inhibition constant (Ki) ([3H]PGD2 competition, Table B) is 20.1 to 200 nM.

Under setting [1], `N#Cc1cccc(C2CN(C(=O)c3ccc4nc(-c5ccccc5)c(CCCCC(=O)O)nc4c3)C2)c1` [compound 175, 7-[[3-(3-cyanophenyl)-1-azetidinyl]carbonyl]-3-phenyl-2-quinoxalinepentanoic acid] gave a Ki of 2.1 to 20 nM.

In turn, `O=C(O)CCCCc1nc2cc(C(=O)Nc3ccccc3F)ccc2nc1-c1cccc(F)c1` [3V, 3-(3-fluoropheny)-7-[[(2-fluorophenyl)amino]carbonyl]-2-quinoxalinepentanoic acid] showed a Ki under setting [1] of 201 to 700 nM.

With `C[C@H]1CN(c2ccc(F)cc2)CCN1C(=O)c1ccc2nc(-c3ccccc3)c(CCCCC(=O)O)nc2c1` [compound 516, (S)-5-(7-(4-(4-fluorophenyl)-2-methylpiperazine-1-carbonyl)-3-phenylquinoxalin-2-yl)pentanoic acid], the Ki ([3H]PGD2 competition, Table B) was in the range of 2.1 to 20 nM.

`C[C@H](CCCc1nc2cc(C(=O)N[C@H]3CCCc4ccccc43)ccc2nc1-c1ccc(F)cc1)C(=O)O` [compound 478, (R)-5-(3-(4-fluorophenyl)-7-(((S)-1,2,3,4-tetrahydronaphthalen-1-yl)carbamoyl)quinoxalin-2-yl)-2-methylpentanoic acid]: the Ki ([3H]PGD2 competition, Table B) is 20.1 to 200 nM.

On to `C[C@@H](NC(=O)c1ccc2nc(-c3ccc(Cl)cc3)c(CCCCC(=O)O)nc2c1)c1ccc(F)cn1` [compound 434, (R)-5-(3-(4-chlorophenyl)-7-((1-(5-fluoropyridin-2-yl)ethyl)carbamoyl)quinoxalin-2-yl)pentanoic acid], for which the inhibition constant (Ki) ([3H]PGD2 competition, Table B) lay within 0.1 to 2 nM.

Under setting [1], `COc1ccc(-c2nc3ccc(C(=O)N4CCC(c5ccccc5)CC4)cc3nc2CCCCC(=O)O)c(Cl)c1` [26W, 3-(2-chloro-4-methoxyphenyl)-7-[(4-phenyl-1-piperidinyl)carbonyl]-2-quinoxalinepentanoic acid] returned a Ki of 0.1 to 2 nM.

As to `O=C(O)CCCCc1nc2cc(C(=O)N[C@@H]3CCc4ccccc43)ccc2nc1-c1ccc(Cl)cc1` [16Ao, 3-(4-chlorophenyl)-7-[[(2,3-dihydro-1H-inden-1(R)-yl)amino]carbonyl]-2-quinoxalinepentanoic acid], the inhibition constant (Ki) is, setting by setting: under setting [1], 0.1 to 2 nM; under setting [2], 0.4 nM.

Compound `C[C@@H](CCCc1nc2cc(C(=O)N[C@@H]3CCOc4ccccc43)ccc2nc1-c1ccc(F)cc1)C(=O)O` [compound 520, (S)-5-(7-((R)-chroman-4-ylcarbamoyl)-3-(4-fluorophenyl)quinoxalin-2-yl)-2-methylpentanoic acid] gave an inhibition constant (Ki) ([3H]PGD2 competition, Table B) of 2.1 to 20 nM.

Under setting [1], `CC(CCCc1nc2cc(C(=O)N(C)Cc3cccc(F)c3)ccc2nc1-c1ccc(F)cc1)C(=O)O` (stereo not drawn) [compound 211, 3-(4-fluorophenyl)-7-[[[(3-fluorophenyl)methyl]methylamino]carbonyl]-alpha-methyl-2-quinoxalinepentanoic acid] displayed a Ki of 2.1 to 20 nM.

One may read the Ki as a measure of affinity in units of concentration, obtained from inhibition or displacement. Read a low Ki as a stronger hold on the target.
